# Results published in patent publication US20070270475A1, “4-Methoxy-Pyrrolidine-2-Carboxylic Acid Compounds and Derivatives Thereof as Hepatitis C Virus Inhibitors” (priority 2004, published 2007).
# Molecular target: T1, HCV RNA Polymerase, recombinant full-length NS5B, genotype 1b (Hepatitis C virus genotype 1b, UniProt Q9WMX2)
# T1 construct: Recombinant full-length NS5B; made in house; host or cells: baculovirus (insect cells)
# Assay: In vitro HCV RNA-dependent RNA polymerase inhibition assay, genotype 1b full-length enzyme
# Type: biochemical, HCV genotype 1b
# Details: genotype 1b full-length NS5B, 4 nM enzyme
# Procedure: In Vitro Detection of inhibitors of HCV RNA-Dependent RNA Polymerase Activity
# Incorporation of [^33P]-GMP into RNA was followed by absorption of the biotin labelled RNA polymer by streptavidin containing SPA beads. A synthetic template consisting of biotinylated 13mer-oligoG hybridised to polyrC was used as a homopolymer substrate.
# b) Genotype 1b Full-Length Enzyme
# Reaction Conditions were 0.5 μM [^33P]-GTP (20 Ci/mMol), 1 mM Dithiothreitol, 20 mM MgCl2, 5 mM MnCl2, 20 mM Tris-HCl, pH7.5, 1.6 μg/mL polyC/0.256 μM biotinylated oligoG13, 10% glycerol, 0.01% NP-40, 0.2 u/μL RNasin and 50 mM NaCl.
# HCV RNA Polymerase (Recombinant full-length NS5B (Lohmann et al, J. Virol. 71 (11), 1997, 8416. ‘Biochemical properties of hepatitis C virus NS5B RNA-dependent RNA polymerase and identification of amino acid sequence motifs essential for enzymatic activity’) expressed in baculovirus and purified to homogeneity) was added to 4 nM final concentration.
# 5× concentrated assay buffer mix was prepared using 1M MnCl2 (0.25 mL), glycerol (2.5 mL), 10% NP-40 (0.025 mL) and Water (7.225 mL), Total 10 mL.
# 2× concentrated enzyme buffer contained 1M-Tris-HCl, pH7.5 (0.4 mL), 5M NaCl (0.2 mL), 1M-MgCl2(0.4 mL), glycerol (1 mL), 10% NP-40 (10 μL), 1M DTT (20 μL) and water (7.97 mL), Total 10 mL.
# Substrate Mix was prepared using 5x Concentrated assay Buffer mix (4 μL), [^33P]-GTP (10 μCi/μL, 0.02 μL), 25 μM GTP (0.4 μL), 40 μ/μL RNasin (0.1 μL), 20 μg/mL polyrC/biotinylated-oligorG (1.6 μL), and Water (3.94 μL), Total 10 μL.
# Enzyme Mix was prepared by adding 1 mg/ml full-length NS5B polymerase (1.5 μL) to 2.81 mL 2×-concentrated enzyme buffer.
# The Assay was set up using compound (1μL), Substrate Mix (10 μL), and Enzyme Mix (added last to start reaction) (10 μL), Total 21 μL.
# The reaction was performed in a U-bottomed, white, 96-well plate. The reaction was mixed on a plate-shaker, after addition of the Enzyme, and incubated for 1 h at 22° C. After this time, the reaction was stopped by addition of 40 μL 1.875 mg/ml streptavidin SPA beads in 0.1 M EDTA. The beads were incubated with the reaction mixture for 1 h at 22° C. after which 120 μL 0.1 M EDTA in PBS was added. The plate was sealed, mixed centrifuged and incorporated radioactivity determined by counting in a Trilux (Wallac) or Topcount (Packard) Scintillation Counter.
# After subtraction of background levels without enzyme, any reduction in the amount of radioactivity incorporated in the presence of a compound, compared to that in the absence, was taken as a measure of the level of inhibition. Ten concentrations of compounds were tested in three- or fivefold dilutions. From the counts, percentage of inhibition at highest concentration tested or IC50s for the compounds were calculated using GraFit 3, GraFit 4 or GraFit 5 (Erithacus Software Ltd.) software packages or a data evaluation macro for Excel based on XLFit software (IDBS).
# T1 sequence (Q9WMX2 2420-3010): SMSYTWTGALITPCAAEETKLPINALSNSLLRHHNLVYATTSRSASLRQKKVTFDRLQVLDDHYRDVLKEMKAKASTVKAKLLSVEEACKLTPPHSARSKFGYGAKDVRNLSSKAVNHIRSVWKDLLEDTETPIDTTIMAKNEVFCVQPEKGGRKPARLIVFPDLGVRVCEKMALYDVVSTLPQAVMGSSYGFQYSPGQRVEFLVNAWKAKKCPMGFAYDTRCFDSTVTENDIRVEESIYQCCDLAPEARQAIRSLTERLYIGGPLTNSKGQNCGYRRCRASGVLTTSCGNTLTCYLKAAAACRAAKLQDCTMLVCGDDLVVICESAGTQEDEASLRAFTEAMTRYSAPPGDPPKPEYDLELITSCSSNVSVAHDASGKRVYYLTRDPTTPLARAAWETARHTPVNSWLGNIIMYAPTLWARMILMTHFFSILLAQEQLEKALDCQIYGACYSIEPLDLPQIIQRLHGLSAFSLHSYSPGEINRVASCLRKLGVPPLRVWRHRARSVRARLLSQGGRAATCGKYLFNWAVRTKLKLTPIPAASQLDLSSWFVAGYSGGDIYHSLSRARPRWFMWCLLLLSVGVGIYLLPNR
row,Compound,IC50 [nM]
1,"COC[C@H]1C[C@@](CC(C)C)(C(=O)O)N(C(=O)c2ccc(C(C)(C)C)c(OC)c2)[C@H]1c1nccs1 [Compound B, (2S,4S,5R)-2-isobutyl-1-(3-methoxy-4-tert-butylbenzoyl)-4-methoxymethyl-5-(1,3-thiazol-2-yl)pyrrolidine-2-carboxylic acid, reference compound]",200 to 500
2,"COC[C@H]1C[C@@](CC(C)C)(C(=O)O)N(C(=O)c2ccc(C(C)(C)C)c(OC)c2)[C@H]1c1ncc(C)s1 (racemic) [Compound C, rel-(2S,4S,5R)-2-isobutyl-1-(3-methoxy-4-tert-butylbenzoyl)-4-methoxymethyl-5-(5-methyl-1,3-thiazol-2-yl)pyrrolidine-2-carboxylic acid, reference compound]",> 500
3,"COC[C@H]1C[C@@](Cn2cccn2)(C(=O)O)N(C(=O)c2ccc(C(C)(C)C)c(OC)c2)[C@H]1c1nccs1 (racemic) [Example 6, rel-(2R,4S,5R)-1-(3-Methoxy-4-tert-butylbenzoyl)-4-(methoxymethyl)-2-(1H-pyrazol-1-ylmethyl)-5-(1,3-thiazol-2-yl)pyrrolidine-2-carboxylic acid]",< 200
4,"COC[C@H]1C[C@@](Cc2cscn2)(C(=O)O)N(C(=O)c2ccc(C(C)(C)C)c(OC)c2)[C@H]1c1nccs1 (single isomer, unassigned; enantiomer a) [Example 12]",< 200
5,"COC[C@H]1C[C@@](Cn2cccn2)(C(=O)O)N(C(=O)c2ccc(C(C)(C)C)c(OC)c2)[C@H]1c1ncc(C)s1 (racemic) [Example 10, rel-(2R,4S,5R)-1-(3-Methoxy-4-tert-butylbenzoyl)-4-(methoxymethyl)-5-(5-methyl-1,3-thiazol-2-yl)-2-(1H-pyrazol-1-ylmethyl)pyrrolidine-2-carboxylic acid]",< 200
6,"COC[C@H]1C[C@@](Cc2nccs2)(C(=O)O)N(C(=O)c2ccc(C(C)(C)C)c(OC)c2)[C@H]1c1ncc(C)s1 (racemic) [Example 8, rel-(2R,4S,5R)-1-(3-Methoxy-4-tert-butylbenzoyl)-4-(methoxymethyl)-5-(5-methyl-1,3-thiazol-2-yl)-2-(1,3-thiazol-2-ylmethyl)pyrrolidine-2-carboxylic acid]",< 200
7,"COC[C@H]1C[C@@](Cc2cscn2)(C(=O)O)N(C(=O)c2ccc(C(C)(C)C)c(OC)c2)[C@H]1c1nccs1 (racemic) [Example 3, rel-(2R,4S,5R)-1-(3-Methoxy-4-tert-butylbenzoyl)-4-(methoxymethyl)-5-(1,3-thiazol-2-yl)-2-(1,3-thiazol-4-ylmethyl)pyrrolidine-2-carboxylic acid]",< 200
8,"COC[C@H]1C[C@@](Cc2ccsn2)(C(=O)O)N(C(=O)c2ccc(C(C)(C)C)c(OC)c2)[C@H]1c1nccs1 (single isomer, unassigned; enantiomer a) [Example 5]",< 200
9,"COC[C@H]1C[C@@](Cn2cccn2)(C(=O)O)N(C(=O)c2ccc(C(C)(C)C)c(OC)c2)[C@H]1c1ncc(C)s1 (single isomer, unassigned; enantiomer a) [Example 11]",< 200
10,"COC[C@H]1C[C@@](CC(C)C)(C(=O)O)N(C(=O)c2ccc(C(C)(C)C)c(OC)c2)[C@H]1c1nccs1 (racemic) [Compound A, rel-(2S,4S,5R)-2-isobutyl-1-(3-methoxy-4-tert-butylbenzoyl)-4-methoxymethyl-5-(1,3-thiazol-2-yl)pyrrolidine-2-carboxylic acid, reference compound]",> 500
11,"COC[C@H]1C[C@@](Cc2cscn2)(C(=O)O)N(C(=O)c2ccc(C(C)(C)C)c(OC)c2)[C@H]1c1ncc(C)s1 (racemic) [Example 1, rel-(2R,4S,5R)-1-(3-Methoxy-4-tert-butylbenzoyl)-4-(methoxymethyl)-5-(5-methyl-1,3-thiazol-2-yl)-2-(1,3-thiazol-4-ylmethyl)pyrrolidine-2-carboxylic acid]",< 200
12,"COC[C@H]1C[C@@](Cc2ccccc2)(C(=O)O)N(C(=O)c2ccc(C(C)(C)C)c(OC)c2)[C@H]1c1nccs1 (racemic) [Compound E, rel-(2R,4S,5R)-2-benzyl-1-(3-methoxy-4-tert-butylbenzoyl)-4-methoxymethyl-5-(1,3-thiazol-2-yl)-pyrrolidine-2-carboxylic acid, reference compound]",200 to 500
13,"COC[C@H]1C[C@@](Cc2ccsn2)(C(=O)O)N(C(=O)c2ccc(C(C)(C)C)c(OC)c2)[C@H]1c1ncc(C)s1 (racemic) [Example 9, rel-(2R,4S,5R)-1-(3-Methoxy-4-tert-butylbenzoyl)-4-(methoxymethyl)-5-(5-methyl-1,3-thiazol-2-yl)-2-(1,2-thiazol-3-ylmethyl)pyrrolidine-2-carboxylic acid]",< 200
14,"COC[C@H]1C[C@@](Cn2cccn2)(C(=O)O)N(C(=O)c2ccc(C(C)(C)C)c(OC)c2)[C@H]1c1nccs1 (single isomer, unassigned) [Example 7]",< 200
15,"COCC1CC(CC(C)C)(C(=O)O)N(C(=O)c2ccc(C(C)(C)C)c(OC)c2)C1c1ncc(C)s1 (single isomer, unassigned; enantiomer a) [Compound D, reference compound]",200 to 500
16,"COC[C@H]1C[C@@](Cc2cscn2)(C(=O)O)N(C(=O)c2ccc(C(C)(C)C)c(OC)c2)[C@H]1c1ncc(C)s1 (single isomer, unassigned; enantiomer a) [Example 2]",< 200
17,"COC[C@H]1C[C@@](Cc2ccsn2)(C(=O)O)N(C(=O)c2ccc(C(C)(C)C)c(OC)c2)[C@H]1c1nccs1 (racemic) [Example 4, rel-(2R,4S,5R)-1-(3-Methoxy-4-tert-butylbenzoyl)-4-(methoxymethyl)-5-(1,3-thiazol-2-yl)-2-(1,2-thiazol-3-ylmethyl)pyrrolidine-2-carboxylic acid]",< 200
